Laboratory results reported in publication PMC7481482, “Development of Anthraquinone Derivatives as Ectonucleoside Triphosphate Diphosphohydrolase (NTPDase) Inhibitors With Selectivity for NTPDase2 and NTPDase3” (Frontiers in Pharmacology, 2020).

How the values were obtained:
rat NTPDase1 = settings: rat enzyme; ref Baqi et al., 2009b; cited from earlier work
human NTPDase3 = target: T1, human NTPDase3 (Homo sapiens, UniProt O75355); assay: Malachite green assay, human NTPDase3; assay type: biochemical; settings: 2 μM compound; 100 µM ATP; COS-7 membrane preparation; read-out: % inhibition at 2 μM concentration, NTPDase3
T1 construct: expressed in transfected cells; host or cells: COS-7 cells (membrane preparation)
T1 sequence (O75355 1-529): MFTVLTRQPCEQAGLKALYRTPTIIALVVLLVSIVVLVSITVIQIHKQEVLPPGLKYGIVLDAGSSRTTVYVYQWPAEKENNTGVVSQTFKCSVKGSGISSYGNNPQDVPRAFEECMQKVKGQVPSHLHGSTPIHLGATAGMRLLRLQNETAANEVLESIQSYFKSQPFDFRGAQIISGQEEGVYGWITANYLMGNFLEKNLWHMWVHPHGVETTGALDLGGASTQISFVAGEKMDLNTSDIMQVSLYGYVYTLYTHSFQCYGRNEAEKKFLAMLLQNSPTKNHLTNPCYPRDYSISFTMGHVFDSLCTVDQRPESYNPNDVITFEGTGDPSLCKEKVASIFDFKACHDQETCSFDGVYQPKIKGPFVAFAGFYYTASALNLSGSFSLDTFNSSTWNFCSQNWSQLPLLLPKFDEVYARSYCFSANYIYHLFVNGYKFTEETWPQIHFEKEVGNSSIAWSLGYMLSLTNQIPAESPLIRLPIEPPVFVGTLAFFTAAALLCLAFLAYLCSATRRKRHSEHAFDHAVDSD
Outline: (§1)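 COS-7 membranes expressing each NTPDase were preincubated with compound for 5 min at 37 °C, pH 7.4 HEPES buffer with 2 mM CaCl2/1 mM MgCl2. ATP was 50 µM for NTPDase1 and 100 µM for -2, -3, -8; reaction ran 15 min at 37 °C. Released phosphate read by malachite green at 600 nm; screen at 2 µM, IC50 over 0.03–30 µM in 2% DMSO.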

rat CD73 = test system: rat CD73; parameters: method as in Baqi et al., 2010; settings: ref Baqi et al., 2010; cited from earlier work
human NTPDase8 = target: T2, human NTPDase8 (Homo sapiens, UniProt Q5MY95); assay: Malachite green assay, human NTPDase8; assay type: biochemical; settings: 2 μM compound; 100 µM ATP; COS-7 membrane preparation; read-out: % inhibition at 2 μM concentration, NTPDase8
T2 construct: expressed in transfected cells; host or cells: COS-7 cells (membrane preparation)
T2 sequence (Q5MY95 1-495): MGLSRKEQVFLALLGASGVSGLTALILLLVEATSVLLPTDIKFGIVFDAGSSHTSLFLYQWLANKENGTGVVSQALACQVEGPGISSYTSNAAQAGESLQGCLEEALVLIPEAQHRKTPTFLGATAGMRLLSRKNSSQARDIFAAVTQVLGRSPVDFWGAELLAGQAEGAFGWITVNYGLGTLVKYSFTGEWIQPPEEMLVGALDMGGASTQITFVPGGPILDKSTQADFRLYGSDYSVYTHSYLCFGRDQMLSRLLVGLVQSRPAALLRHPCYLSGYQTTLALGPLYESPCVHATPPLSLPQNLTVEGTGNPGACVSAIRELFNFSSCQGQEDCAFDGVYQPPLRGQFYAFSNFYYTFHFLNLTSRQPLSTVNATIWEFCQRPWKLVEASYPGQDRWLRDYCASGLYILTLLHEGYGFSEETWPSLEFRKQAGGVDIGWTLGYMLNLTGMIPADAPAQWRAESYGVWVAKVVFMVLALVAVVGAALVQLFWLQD
Outline: as §1

inhibition at 2 µM (human NTPDase3): -4%
inhibition at 2 µM (human NTPDase8): 9%
Structure (SMILES): Nc1c(S(=O)(=O)O)cc(Nc2cccc3ccccc23)c2c1C(=O)c1ccccc1C2=O [Compound 15]
IC50 (rat NTPDase1): > 100 µM
IC50 (rat CD73): 530 nM
